Measured values: patent US9266835B2, “Quinoline derivatives useful as CB-1 inverse agonists” (JANSSEN PHARMACEUTICA NV, priority 2014, dated 2016)

Test: Chronic DIO Mouse, first study (food intake, body weight, insulin tolerance test, glucose tolerance test, plasma insulin, fed blood glucose)
Format: in vivo
Details: DIO mice; for Fed Blood Glucose / Plasma Insulin: mean (Std Err); for Insulin Tolerance Test, Blood Glucose AUC: day 19; for Intraperitoneal Glucose Tolerance Test Blood Glucose AUC: day 23
Procedure: Male 14-20-week old diet-induced obese mice were ordered from Taconic. Mice were started on a 60% fat diet (D12492, Research Diets, New Brunswick, N.J.) at 6 weeks of age. Mice were single-housed.
Test compounds were formulated in 10% PEG400 and 10% solutol. Test compounds were administered by oral gavage (5 ml kg^−1).
The test compound was formulated in 10% PEG400 and 10% solutol. DIO mice received vehicle, test compound (@ 1, 3 and 10 mg/kg) daily for 26 days. At the end of the experiment, the mice were euthanized and blood and tissues were collected.
Body weight and food weight (food intake) were monitored daily for days 1-5 and twice weekly thereafter. Fed blood glucose was measured weekly.
An insulin tolerance test (0.5 U/kg Humulin, ip) was performed on day 19 after a 4 hour food removal. Blood glucose was measured at 0, 15, 30, 60 and 120 minutes after insulin. […] Blood glucose was measured at 0, 30, 60 and 120 minutes after glucose challenge.
Blood glucose was measured from the tail vein with a Lifescan glucometer. Plasma insulin was measured with an ELISA or HTRF kit (Cisbio). Plasma parameters were measured with an Olympus clinical chemistry analyzer.
Compound #44 was tested according to the procedure as described above, with results as listed in Table BIO-4A through Table BIO4-G, below.

O=c1cc(NC2CCN(S(=O)(=O)C(F)(F)F)CC2)c2cc(C(c3ccc(Cl)cc3)c3ccc(Cl)cc3)ccc2[nH]1 [Compound #44, 6-(bis(4-chlorophenyl)methyl)-4-(1-(trifluoromethylsulfonyl)piperidin-4-ylamino)quinolin-2(1H)-one]
Fed Blood Glucose (1 mg/kg daily oral, Day 0): 162.75 (13.02) mg/dL | Fed Blood Glucose (1 mg/kg daily oral, Day 18): 154.83 (5.98) mg/dL | Plasma Insulin (1 mg/kg daily oral): 2.60 (0.3) ng/mL | Mean Body Weight (Std Err) (1 mg/kg daily, Day 1): 43.32 (0.45) Grams | Mean Body Weight (Std Err) (1 mg/kg daily, Day 2): 43.28 (0.45) Grams | Mean Daily Food Intake (Std Err) (1 mg/kg daily, Day 2): 2.84 (0.17) Grams | Mean Body Weight (Std Err) (1 mg/kg daily, Day 3): 43.28 (0.42) Grams | Mean Daily Food Intake (Std Err) (1 mg/kg daily, Day 3): 3.00 (0.09) Grams | Mean Body Weight (Std Err) (1 mg/kg daily, Day 4): 43.06 (0.44) Grams | Mean Daily Food Intake (Std Err) (1 mg/kg daily, Day 4): 2.76 (0.17) Grams | Mean Body Weight (Std Err) (1 mg/kg daily, Day 5): 43.21 (0.50) Grams | Mean Daily Food Intake (Std Err) (1 mg/kg daily, Day 5): 2.88 (0.12) Grams | Mean Body Weight (Std Err) (1 mg/kg daily, Day 8): 42.62 (0.48) Grams | Mean Daily Food Intake (Std Err) (1 mg/kg daily, Day 8): 2.50 (0.09) Grams | Mean Body Weight (Std Err) (1 mg/kg daily, Day 10): 42.38 (0.51) Grams | Mean Daily Food Intake (Std Err) (1 mg/kg daily, Day 10): 2.37 (0.07) Grams | Mean Body Weight (Std Err) (1 mg/kg daily, Day 11): 42.07 (0.63) Grams | Mean Daily Food Intake (Std Err) (1 mg/kg daily, Day 11): 2.28 (0.15) Grams | Insulin Tolerance Test, Blood Glucose AUC (1 mg/kg daily): 18543.8 mg·min/dL | Insulin Tolerance Test Mean Blood Glucose (Std Err) (1 mg/kg daily, day 19, 0 min after insulin): 194.0 (6.1) mg/dL | Insulin Tolerance Test Mean Blood Glucose (Std Err) (1 mg/kg daily, day 19, 15 min after insulin): 196.1 (18.6) mg/dL | Insulin Tolerance Test Mean Blood Glucose (Std Err) (1 mg/kg daily, day 19, 30 min after insulin): 136.7 (10.4) mg/dL | Insulin Tolerance Test Mean Blood Glucose (Std Err) (1 mg/kg daily, day 19, 60 min after insulin): 145.1 (11.5) mg/dL | Insulin Tolerance Test Mean Blood Glucose (Std Err) (1 mg/kg daily, day 19, 120 min after insulin): 151.4 (7.8) mg/dL | Intraperitoneal Glucose Tolerance Test Blood Glucose AUC (1 mg/kg daily): 29525.6 mg·min/dL | Intraperitoneal Glucose Tolerance Test Mean Blood Glucose (Std Err) (1 mg/kg daily, day 23, 0 min after glucose): 158.1 (6.9) mg/dL | Intraperitoneal Glucose Tolerance Test Mean Blood Glucose (Std Err) (1 mg/kg daily, day 23, 30 min after glucose): 334.6 (14.5) mg/dL | Intraperitoneal Glucose Tolerance Test Mean Blood Glucose (Std Err) (1 mg/kg daily, day 23, 60 min after glucose): 264.8 (19.7) mg/dL | Intraperitoneal Glucose Tolerance Test Mean Blood Glucose (Std Err) (1 mg/kg daily, day 23, 120 min after glucose): 173.4 (13.5) mg/dL | Fed Blood Glucose (3 mg/kg daily oral, Day 0): 167.13 (7.59) mg/dL | Fed Blood Glucose (3 mg/kg daily oral, Day 18): 156.50 (7.39) mg/dL | Plasma Insulin (3 mg/kg daily oral): 2.26 (0.3) ng/mL | Mean Body Weight (Std Err) (3 mg/kg daily, Day 1): 43.19 (0.39) Grams | Mean Body Weight (Std Err) (3 mg/kg daily, Day 2): 42.86 (0.47) Grams | Mean Daily Food Intake (Std Err) (3 mg/kg daily, Day 2): 2.71 (0.13) Grams | Mean Body Weight (Std Err) (3 mg/kg daily, Day 3): 42.71 (0.56) Grams | Mean Daily Food Intake (Std Err) (3 mg/kg daily, Day 3): 2.92 (0.13) Grams | Mean Body Weight (Std Err) (3 mg/kg daily, Day 4): 42.20 (0.65) Grams | Mean Daily Food Intake (Std Err) (3 mg/kg daily, Day 4): 2.44 (0.24) Grams | Mean Body Weight (Std Err) (3 mg/kg daily, Day 5): 41.95 (0.70) Grams | Mean Daily Food Intake (Std Err) (3 mg/kg daily, Day 5): 2.26 (0.20) Grams | Mean Body Weight (Std Err) (3 mg/kg daily, Day 8): 41.06 (0.76) Grams | Mean Daily Food Intake (Std Err) (3 mg/kg daily, Day 8): 2.30 (0.11) Grams | Mean Body Weight (Std Err) (3 mg/kg daily, Day 10): 40.50 (0.74) Grams | Mean Daily Food Intake (Std Err) (3 mg/kg daily, Day 10): 2.14 (0.15) Grams | Mean Body Weight (Std Err) (3 mg/kg daily, Day 11): 40.15 (0.74) Grams | Mean Daily Food Intake (Std Err) (3 mg/kg daily, Day 11): 1.95 (0.11) Grams | Insulin Tolerance Test, Blood Glucose AUC (3 mg/kg daily): 16879.5 mg·min/dL | Insulin Tolerance Test Mean Blood Glucose (Std Err) (3 mg/kg daily, day 19, 0 min after insulin): 189.4 (7.3) mg/dL | Insulin Tolerance Test Mean Blood Glucose (Std Err) (3 mg/kg daily, day 19, 15 min after insulin): 178.8 (12.5) mg/dL | Insulin Tolerance Test Mean Blood Glucose (Std Err) (3 mg/kg daily, day 19, 30 min after insulin): 121.4 (13.7) mg/dL | Insulin Tolerance Test Mean Blood Glucose (Std Err) (3 mg/kg daily, day 19, 60 min after insulin): 119.7 (9.6) mg/dL | Insulin Tolerance Test Mean Blood Glucose (Std Err) (3 mg/kg daily, day 19, 120 min after insulin): 155.3 (9.5) mg/dL | Intraperitoneal Glucose Tolerance Test Blood Glucose AUC (3 mg/kg daily): 29983.1 mg·min/dL | Intraperitoneal Glucose Tolerance Test Mean Blood Glucose (Std Err) (3 mg/kg daily, day 23, 0 min after glucose): 161.8 (5.0) mg/dL | Intraperitoneal Glucose Tolerance Test Mean Blood Glucose (Std Err) (3 mg/kg daily, day 23, 30 min after glucose): 352.0 (22.6) mg/dL | Intraperitoneal Glucose Tolerance Test Mean Blood Glucose (Std Err) (3 mg/kg daily, day 23, 60 min after glucose): 264.6 (25.6) mg/dL | Intraperitoneal Glucose Tolerance Test Mean Blood Glucose (Std Err) (3 mg/kg daily, day 23, 120 min after glucose): 169.6 (9.2) mg/dL | Fed Blood Glucose (10 mg/kg daily oral, Day 0): 161.88 (6.71) mg/dL | Fed Blood Glucose (10 mg/kg daily oral, Day 18): 154.00 (5.53) mg/dL | Plasma Insulin (10 mg/kg daily oral): 2.14 (0.3) ng/mL | Mean Body Weight (Std Err) (10 mg/kg daily, Day 1): 43.26 (0.40) Grams | Mean Body Weight (Std Err) (10 mg/kg daily, Day 2): 42.39 (0.36) Grams | Mean Daily Food Intake (Std Err) (10 mg/kg daily, Day 2): 2.24 (0.10) Grams | Mean Body Weight (Std Err) (10 mg/kg daily, Day 3): 41.61 (0.41) Grams | Mean Daily Food Intake (Std Err) (10 mg/kg daily, Day 3): 2.29 (0.16) Grams | Mean Body Weight (Std Err) (10 mg/kg daily, Day 4): 40.76 (0.37) Grams | Mean Daily Food Intake (Std Err) (10 mg/kg daily, Day 4): 1.70 (0.08) Grams | Mean Body Weight (Std Err) (10 mg/kg daily, Day 5): 40.17 (0.39) Grams | Mean Daily Food Intake (Std Err) (10 mg/kg daily, Day 5): 1.58 (0.11) Grams | Mean Body Weight (Std Err) (10 mg/kg daily, Day 8): 38.16 (0.48) Grams | Mean Daily Food Intake (Std Err) (10 mg/kg daily, Day 8): 1.80 (0.12) Grams | Mean Body Weight (Std Err) (10 mg/kg daily, Day 10): 37.47 (0.56) Grams | Mean Daily Food Intake (Std Err) (10 mg/kg daily, Day 10): 2.02 (0.13) Grams | Mean Body Weight (Std Err) (10 mg/kg daily, Day 11): 36.67 (0.55) Grams | Mean Daily Food Intake (Std Err) (10 mg/kg daily, Day 11): 1.94 (0.11) Grams | Insulin Tolerance Test, Blood Glucose AUC (10 mg/kg daily): 14258.3 mg·min/dL | Insulin Tolerance Test Mean Blood Glucose (Std Err) (10 mg/kg daily, day 19, 0 min after insulin): 163.5 (5.9) mg/dL | Insulin Tolerance Test Mean Blood Glucose (Std Err) (10 mg/kg daily, day 19, 15 min after insulin): 138.4 (20.0) mg/dL | Insulin Tolerance Test Mean Blood Glucose (Std Err) (10 mg/kg daily, day 19, 30 min after insulin): 96.2 (11.0) mg/dL | Insulin Tolerance Test Mean Blood Glucose (Std Err) (10 mg/kg daily, day 19, 60 min after insulin): 99.7 (9.7) mg/dL | Insulin Tolerance Test Mean Blood Glucose (Std Err) (10 mg/kg daily, day 19, 120 min after insulin): 143.5 (8.3) mg/dL | Intraperitoneal Glucose Tolerance Test Blood Glucose AUC (10 mg/kg daily): 25680.0 mg·min/dL | Intraperitoneal Glucose Tolerance Test Mean Blood Glucose (Std Err) (10 mg/kg daily, day 23, 0 min after glucose): 141.6 (6.5) mg/dL | Intraperitoneal Glucose Tolerance Test Mean Blood Glucose (Std Err) (10 mg/kg daily, day 23, 30 min after glucose): 319.1 (26.9) mg/dL | Intraperitoneal Glucose Tolerance Test Mean Blood Glucose (Std Err) (10 mg/kg daily, day 23, 60 min after glucose): 225.1 (20.3) mg/dL | Intraperitoneal Glucose Tolerance Test Mean Blood Glucose (Std Err) (10 mg/kg daily, day 23, 120 min after glucose): 128.4 (5.7) mg/dL
